From patent publication US20040180855A1, “Methods of treating thrombosis with reduced risk of increased bleeding times” (priority 2003, published 2004)

Columns and labels:
[1] = system: thrombosis and bleeding time in anesthetized rats; assay: Differential effect on thrombosis inhibition and bleeding time prolongation (FIG. 7); format: in vivo, rat; settings: versus thrombin and FXa inhibitors (16A, 16B)
Protocol: FIG. 7 reports an analysis of the differential effect on thrombosis inhibition and bleeding time prolongation in anesthetized rats for the Factor XIa inhibitor, as compared with the “direct acting” thrombin and FXa active site inhibitors, namely, compounds 16A and 16B (thrombin and FXa active site inhibitors). The thrombin inhibitor (open symbols), FXa inhibitor (dotted symbols) and FXIa inhibitor (line symbols) were tested for effects on arterial thrombosis (squares), venous thrombosis (triangles) and bleeding time (circles) in rat models. Compounds were administered as loading plus sustaining infusion and the total dose is given on the x-axis.

[2] = biological target: T1, Recombinant tissue plasminogen activator (Homo sapiens, UniProt P00750); assay: Selectivity assay tissue plasminogen activator; format: biochemical; settings: Table 3
T1 construct: purchased Genentech
T1 sequence (P00750 36-562): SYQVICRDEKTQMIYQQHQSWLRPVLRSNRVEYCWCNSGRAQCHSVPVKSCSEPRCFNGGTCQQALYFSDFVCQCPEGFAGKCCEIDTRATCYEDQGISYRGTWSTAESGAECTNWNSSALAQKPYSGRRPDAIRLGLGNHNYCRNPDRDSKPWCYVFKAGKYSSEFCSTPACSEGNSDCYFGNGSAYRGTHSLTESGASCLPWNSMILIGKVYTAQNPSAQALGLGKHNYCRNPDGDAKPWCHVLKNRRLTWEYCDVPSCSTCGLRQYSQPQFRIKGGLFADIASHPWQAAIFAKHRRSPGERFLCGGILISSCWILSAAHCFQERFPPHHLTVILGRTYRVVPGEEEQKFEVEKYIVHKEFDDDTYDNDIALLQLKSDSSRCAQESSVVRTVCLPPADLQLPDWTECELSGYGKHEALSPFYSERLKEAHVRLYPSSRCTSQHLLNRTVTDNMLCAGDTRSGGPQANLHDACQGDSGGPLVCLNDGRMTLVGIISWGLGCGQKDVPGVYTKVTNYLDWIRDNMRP

FXIIa = biological target: T2, FXIIa (Homo sapiens, UniProt P00748); assay: Selectivity assay FXIIa; format: biochemical; settings: Table 3
T2 construct: purchased American Diagnostica
T2 sequence (P00748 373-615 limits assumed, other chains not shown): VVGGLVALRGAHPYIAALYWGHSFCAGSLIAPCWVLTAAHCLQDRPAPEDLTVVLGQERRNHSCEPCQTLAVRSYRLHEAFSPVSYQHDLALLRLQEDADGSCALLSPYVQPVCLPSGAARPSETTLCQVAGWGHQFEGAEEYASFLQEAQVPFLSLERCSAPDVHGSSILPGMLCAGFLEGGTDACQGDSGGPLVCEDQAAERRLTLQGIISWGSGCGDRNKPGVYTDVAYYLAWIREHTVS

[3] = system: FeCl2-VT (vena cava thrombosis); assay: Venous thrombosis, vessel injury model (FeCl2-VT); format: in vivo; settings: rat FeCl2-VT
Protocol: General Surgical Preparation Male Sprague Dawley rats (310 to 390 g) were anesthetized with Na-pentobarbital (50 mg/kg i.p.). The left jugular vein was cannulated with PE-50 tubing for drug administration, and the trachea was intubated with PE-205 tubing to ensure airway patency. In some animals, a carotid artery was cannulated with PE-50 tubing to obtain blood samples, and a procedure was followed as described in Schumacher et al., “Comparison of Thrombin Active-Site and Exosite Inhibitors and Heparin in Experimental Models of Arterial and Venous Thrombosis and Bleeding,” J. Pharmacol. Exp. Therap., Vol. 267 (1993), at pp. 1237-42; Schumacher et al., Effects of Antithrombotic Drugs in a Rat Model of Aspirin-Insensitive Arterial Thrombosis, Thromb Haemostasis, Vol. 69 (1993), at pp. 509-514; or Schumacher et al., Effect of a Novel Thrombin Active-Site Inhibitor on Arterial and Venous Thrombosis, Eur J Pharmacol., Vol. 259 (1994), at pp. 165-171, each of which is incorporated herein by reference. In each procedure, a small organic compound effective for inhibiting Factor XIa, as described herein, or saline vehicle, was administered i.v. as a loading infusion over 5 min plus a sustaining infusion that was maintained until the end of the procedure. Compound doses are indicated for each procedure in mg/kg plus mg/kg/hr. The volume of test article was 1 mL/kg plus 1 mL/kg/hr, except the 24 mg/kg+24 mg/kg/hr dose of compound where volume was doubled. […] Statistical Analysis In the venous and arterial thrombosis procedures, treatment effects on thrombus weight, baseline blood flow, and average blood flow during thrombosis were determined by analysis of variance with Dunnett's test for comparison to the vehicle group. […] Treatment effects on bleeding times were determined by analysis of variance with Dunnett's test for comparison to the vehicle group. Both post-treatment and pre-treatment bleeding times and the relative bleeding time increases in sec were analyzed. […]

human plasma = assay: PT clotting time, human plasma; format: biochemical; settings: highest concentration tested 100 μM
Protocol: The term “PT” time as used herein refers to prothrombin times which is intended to refer to the time elapsed between formation of an assay solution and detection of clot formation in the assay solution with use of a PT assay, i.e., an assay employing thromboplastin reagents that are used for evaluating blood coagulation associated with the extrinsic pathway.
(§1) PT and APTT clotting times were determined as described in Balasubramanian et al., J. Med. Chem., Vol. 36 (1993), at pp. 300-03, incorporated herein by reference. The whole blood aggregation response of rat platelets to collagen was determined using the impedance procedure for a Model 560-CA Chrono-Log aggregometer (Havertown, Pa.).

rat plasma = assay: APTT clotting time, rat plasma; format: biochemical
From the text: The term “APTT” as used herein means “activated partial thromboplastin times” which is intended to refer to the time elapsed between the formation of an assay solution and the detection of clot formation in the assay solution with use of an APTT assay, i.e., an assay employing an intrinsic pathway activator, such as micronized silica, and a phospholipid component of a thromboplastin reagent (without tissue factor protein) for evaluating coagulation associated with the intrinsic pathway.
as §1

human factor Xa = biological target: T3, human factor Xa (Homo sapiens, UniProt P00742); assay: Selectivity assay factor Xa; format: biochemical; settings: Table 3; read-out: IC50 (μM) FXa
T3 construct: Factor IXa then converts Factor X to Factor Xa; purchased Kabi Vitrum
T3 sequence (P00742 235-488 limits assumed): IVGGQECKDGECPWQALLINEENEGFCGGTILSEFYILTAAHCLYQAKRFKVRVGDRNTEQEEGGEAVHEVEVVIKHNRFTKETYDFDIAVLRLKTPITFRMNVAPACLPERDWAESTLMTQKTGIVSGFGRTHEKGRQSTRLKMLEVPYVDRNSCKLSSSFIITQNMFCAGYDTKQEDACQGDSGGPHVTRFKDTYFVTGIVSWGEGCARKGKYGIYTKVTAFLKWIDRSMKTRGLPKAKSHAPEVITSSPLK
T3 sequence (P00742 41-179 partner limits assumed): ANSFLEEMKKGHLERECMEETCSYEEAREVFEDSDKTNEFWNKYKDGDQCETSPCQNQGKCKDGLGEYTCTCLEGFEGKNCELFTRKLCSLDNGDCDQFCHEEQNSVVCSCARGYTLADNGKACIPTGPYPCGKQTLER

Human TF:FVIIa = biological target: T4, Human TF:FVIIa (Homo sapiens, UniProt P08709); assay: Selectivity assay TF:FVIIa; format: biochemical; settings: Table 3
T4 construct: purchased Enzyme Research Labs (FVIIa); Dade (Innovin, tissue factor)
T4 sequence (P08709 213-466 limits assumed): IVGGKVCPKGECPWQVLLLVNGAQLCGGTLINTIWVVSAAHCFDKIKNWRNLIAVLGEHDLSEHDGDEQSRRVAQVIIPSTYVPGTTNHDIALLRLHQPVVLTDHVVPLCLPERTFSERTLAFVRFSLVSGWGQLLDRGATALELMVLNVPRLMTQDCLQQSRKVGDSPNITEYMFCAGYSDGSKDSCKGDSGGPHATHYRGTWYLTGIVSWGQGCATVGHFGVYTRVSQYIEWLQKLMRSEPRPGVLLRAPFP
T4 sequence (P08709 61-212 partner limits assumed): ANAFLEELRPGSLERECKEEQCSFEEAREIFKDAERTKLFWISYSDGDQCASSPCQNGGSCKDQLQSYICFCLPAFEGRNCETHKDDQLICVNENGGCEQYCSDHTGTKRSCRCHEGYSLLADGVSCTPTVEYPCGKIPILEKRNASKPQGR
T4 sequence (P13726 33-295 partner): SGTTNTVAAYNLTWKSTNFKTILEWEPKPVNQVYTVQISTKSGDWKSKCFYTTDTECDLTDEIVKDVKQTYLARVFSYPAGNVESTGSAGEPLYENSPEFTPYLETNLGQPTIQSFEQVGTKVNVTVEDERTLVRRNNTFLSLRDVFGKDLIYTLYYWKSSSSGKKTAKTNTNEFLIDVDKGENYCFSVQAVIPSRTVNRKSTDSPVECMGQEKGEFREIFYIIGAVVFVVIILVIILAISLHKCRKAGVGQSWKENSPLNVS
Protocol: Human TF:FVIIa activity was measured using isolated human FVIIa (Enzyme Research Labs) in the presence of recombinant human tissue Factor (Dade Innovin) in a buffer containing 20 mM HEPES, 150 mM NaCl, 5mM CaCl2, 1 mM CHAPS and 1 mg/mL PEG 6000 (pH to 7.4).

FIXa = biological target: T5, FIXa (Homo sapiens, UniProt P00740); assay: Selectivity assay FIXa; format: biochemical; settings: Table 3
T5 construct: purchased American Diagnostica
T5 sequence (P00740 227-461 limits assumed): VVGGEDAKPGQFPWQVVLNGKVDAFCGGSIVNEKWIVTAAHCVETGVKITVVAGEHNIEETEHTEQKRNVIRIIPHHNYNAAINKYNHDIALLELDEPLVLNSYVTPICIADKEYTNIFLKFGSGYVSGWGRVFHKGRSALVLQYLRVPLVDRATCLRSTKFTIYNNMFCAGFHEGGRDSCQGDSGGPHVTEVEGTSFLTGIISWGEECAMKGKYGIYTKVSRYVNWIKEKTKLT
T5 sequence (P00740 47-191 partner limits assumed): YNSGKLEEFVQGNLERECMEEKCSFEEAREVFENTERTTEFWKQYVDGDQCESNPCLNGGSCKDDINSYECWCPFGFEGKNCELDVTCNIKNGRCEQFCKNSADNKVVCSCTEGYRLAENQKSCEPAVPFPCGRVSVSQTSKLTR

For `CC(C)(C)NC(=O)N1CCN(C(=O)N2C(=O)[C@H](CCCNC(=N)N)[C@H]2C(=O)O)CC1` [Example 4], the “separation between bleeding time prolongation and efficacy in venous and arterial thrombosis” value [1] was “substantially greater separation”, the IC50 [2] was > 33 µM and the IC50 (FXIIa) was > 33 µM. For the same compound, the “inhibition (reduction in thrombus weight)” value ([3]; i.v. 0.2+0.2 mg/kg+mg/kg/hr, FIG. 3) was “about 38%”, the “dose dependence of thrombus weight reduction” value ([3]; i.v. 0.2+0.2 to 6+6 mg/kg+mg/kg/hr) was “Dose-dependent reductions” and the “reduction in thrombus weight” value ([3]; i.v. 6+6 mg/kg+mg/kg/hr, FIG. 3) was “approximately 90%”. For the same compound, the “Clotting time PT (human), concentration that doubles clotting time” value (human plasma) was >100 µM, the “Clotting time APTT (rat), concentration that doubles clotting time” value (rat plasma) was 2.1 µM and the IC50 (human factor Xa) was > 33 µM. The IC50 (Human TF:FVIIa) was 0.486 µM and the IC50 (FIXa) was 17.4 µM.
